Experiments:
Assay in all cases: Cell viability (MTS) assay, targeted toxin mediated cell killing
Assay type in all cases: cell-based, human
Conditions in all cases: read-out: IC50, 1500 nM SO1861, toxin or toxin conjugate titrated + 1500 nM unconjugated SO1861
CaSki cells = system: CaSki cells
Experimental: (§1) Cells were seeded in a 96 well plate at 5.000-10.000 c/w in 100 μL/well and incubated overnight at 37° C. […] The media was removed from the cell culture plate and replaced by 180 μL culture media, followed by the addition of 20 μL treatment-mix/well. […] In the case that endosomal acidification inhibitors (chloroquine (Sigma Aldrich) or bafilomycin A1 (Enzo Life Sciences)) were used, the cell culture media in step 1 of treatment was replaced by 180 μL media containing 1 pM chloroquine or 0.2 pM bafilomycin A1. The plate was incubated for 1 hour at 37° C., before the 10× treatment-mix samples were added.
(§2) After treatment the cells were incubated for 72 hr at 37° C. before the cell viability was determined by a MTS-assay, performed according to the manufacturer's instruction (CellTiter 96® AQueous One Solution Cell Proliferation Assay, Promega). Briefly, the MTS solution was diluted 20× in DMEM without phenol red (PAN-Biotech GmbH) supplemented with 10% FBS (PAN-Biotech GmbH). […] Subsequently, the optical density at 492 nm was measured on a Thermo Scientific Multiskan FC plate reader (Thermo Scientific). For quantification the background signal of ‘medium only’ wells was subtracted from all other wells, before the ratio of untreated/treated cells was calculated, by dividing the background corrected signal of untreated wells over the background corrected signal of the treated wells.

HeLa cells = system: HeLa cells
Experimental: as §1, §2

JIMT-1 cells = system: JIMT-1 cells
Experimental: as §1, §2

For Saporin, the IC50 (CaSki cells) was 0.015 nM, the IC50 (HeLa cells) was 0.03 nM and the IC50 (JIMT-1 cells) was 0.03 nM.
